Test results published in patent publication US8729224B2, “Melanocortin receptor-specific peptides for treatment of female sexual dysfunction” (Palatin Technologies, Inc., priority 2008, dated 2014).

Legend:
hMC4-R [1] = target: T1, hMC4-R (Homo sapiens, UniProt P32245); assay: Competitive inhibition binding assay using NDP-α-MSH, MC4-R; details: for Ki: competitive studies using NDP-α-MSH, human recombinant receptor, average of studies
T1 construct: expressed in transfected cells; host or cells: HEK-293
Procedure: A competitive inhibition binding assay is performed using membrane homogenates prepared from HEK-293 cells that express recombinant hMC4-R, hMC3-R, or hMC5-R, and from B-16 mouse melanoma cells (containing endogenous MC1-R). In some instances, HEK-293 cells that express recombinant hMC1-R were employed. In the examples that follow, all MC3-R, MC4-R and MC5-R values are for human recombinant receptors. MC1-R values are for B-16 mouse melanoma cells, unless the heading is “hMC1-R”, in which case the value is for human recombinant MC1-R. Assays were performed in 96 well GF/B Millipore multiscreen filtration plates (MAFB NOB10) pre-coated with 0.5% bovine serum albumin (Fraction V). Membrane homogenates were incubated with 0.2 nM (for hMC4-R) 0.4 nM (for MC3-R and MC5-R) or 0.1 nM (for mouse B16 MC1-R or hMC1-R) [I^125]-NDP-α-MSH (Perkin Elmer) and increasing concentrations of cyclic peptides of the present invention in buffer containing 25 mM HEPES buffer (pH 7.5) with 100 mM NaCl, 2 mM CaCl2, 2 mM MgCl2, 0.3 mM 1,10-phenanthroline, and 0.2% bovine serum albumin. After incubation for 60 minutes at 37° C., the assay mixture was filtered and the membranes washed three times with ice-cold buffer. Filters were dried and counted in a gamma counter for bound radioactivity. […] Maximal specific binding (100%) was defined as the difference in radioactivity (cpm) bound to cell membranes in the absence and presence of 1 μM NDP-α-MSH. […] Ki values for cyclic peptides of the present invention were determined using Graph-Pad Prism® curve-fitting software. […]
Alternatively, a competitive inhibition binding assay was performed employing Eu-NDP-α-MSH (PerkinElmer Life Sciences catalog No. AD0225) with determination by time-resolved fluorometry (TRF) of the lanthanide chelate. […] The plates were incubated on a shaker for 15 minutes and read at 340 nm excitation and 615 nm emission wavelengths. […] Ki values were determined by curve-fitting with Graph-Pad Prism® software using a one-site fixed-slope competition binding model. […]

hMC4-R [2] = target: T1, hMC4-R; assay: Assay for agonist activity (cAMP accumulation in HEK-293 cells expressing hMC4-R); type: cell-based
Procedure: Accumulation of intracellular cAMP is examined as a measure of the ability of the cyclic peptides of the present invention to elicit a functional response in HEK-293 cells that express MC4-R. Confluent HEK-293 cells that express recombinant hMC4-R were detached from culture plates by incubation in enzyme-free cell dissociation buffer. Dispersed cells were suspended in Earle's Balanced Salt Solution containing 10 mM HEPES (pH 7.5), 1 mM MgCl2, 1 mM glutamine, 0.5% albumin and 0.3 mM 3-isobutyl-1-methyl-xanthine (IBMX), a phosphodiesterase inhibitor. The cells were plated in 96-well plates at a density of 0.5×10^5 cells per well and pre-incubated for 30 minutes. Cells were exposed for 1 hour at 37° C. to test cyclic peptides of the present invention dissolved in DMSO (final DMSO concentration of 1%) at a concentration range of 0.05-5000 nM in a total assay volume of 200 μL. NDP-α-MSH was used as the reference agonist. At the end of the incubation period, cells were disrupted by the addition of 50 μL of lysis buffer (cAMP EIA kit, Amersham) followed by vigorous pipetting. Levels of cAMP in the lysates were determined using a cAMP EIA kit (Amersham). Data analysis was performed by nonlinear regression analysis with Graph-Pad Prism® software. The maximum efficacies of the cyclic peptides of the present invention were compared to that achieved by the reference melanocortin agonist NDP-αMSH.

[3] = system: penile erection in male Sprague-Dawley rats; assay: Induction of penile erection in male rats; type: in vivo, rat; details: for observed spontaneous erections compared to vehicle controls: rat model
systolic blood pressure = details: rat, in vivo
Excerpt: In other studies, including comparisons of the same quantities of the cyclic peptide of Example 8.1 and bremelanotide by the same routes of administration, substantially similar results were obtained. […] In other studies, including comparisons of the same quantities of the cyclic peptide of Example 8.4 and bremelanotide by the same routes of administration, substantially similar results were obtained.

[4] = target: T2, MC1-R (B-16 mouse melanoma cells) (Mus musculus, UniProt Q01727); assay: Competitive inhibition binding assay using NDP-α-MSH, MC1-R; details: competitive studies using NDP-α-MSH
T2 construct: from B-16 mouse melanoma cells (containing endogenous MC1-R); endogenous in cells; host or cells: B-16 mouse melanoma cells
Procedure: (§1) A competitive inhibition binding assay is performed using membrane homogenates prepared from HEK-293 cells that express recombinant hMC4-R, hMC3-R, or hMC5-R, and from B-16 mouse melanoma cells (containing endogenous MC1-R). In some instances, HEK-293 cells that express recombinant hMC1-R were employed. In the examples that follow, all MC3-R, MC4-R and MC5-R values are for human recombinant receptors. MC1-R values are for B-16 mouse melanoma cells, unless the heading is “hMC1-R”, in which case the value is for human recombinant MC1-R. Assays were performed in 96 well GF/B Millipore multiscreen filtration plates (MAFB NOB10) pre-coated with 0.5% bovine serum albumin (Fraction V). […] Filters were dried and counted in a gamma counter for bound radioactivity. […] Maximal specific binding (100%) was defined as the difference in radioactivity (cpm) bound to cell membranes in the absence and presence of 1 μM NDP-α-MSH. […] Ki values for cyclic peptides of the present invention were determined using Graph-Pad Prism® curve-fitting software. […]

hMC3-R = target: T3, hMC3-R (Homo sapiens, UniProt P41968); assay: Competitive inhibition binding assay using NDP-α-MSH, MC3-R; details: competitive studies using NDP-α-MSH; human recombinant receptor
T3 construct: expressed in transfected cells; host or cells: HEK-293
Procedure: as §1
(§2) Alternatively, a competitive inhibition binding assay was performed employing Eu-NDP-α-MSH (PerkinElmer Life Sciences catalog No. AD0225) with determination by time-resolved fluorometry (TRF) of the lanthanide chelate. […] The plates were incubated on a shaker for 15 minutes and read at 340 nm excitation and 615 nm emission wavelengths. […]

hMC5-R = target: T4, hMC5-R (Homo sapiens, UniProt P33032); assay: Competitive inhibition binding assay using NDP-α-MSH, MC5-R; details: competitive studies using NDP-α-MSH; human recombinant receptor
T4 construct: expressed in transfected cells; host or cells: HEK-293
Procedure: as §1, §2

T1 sequence (P32245 whole entry): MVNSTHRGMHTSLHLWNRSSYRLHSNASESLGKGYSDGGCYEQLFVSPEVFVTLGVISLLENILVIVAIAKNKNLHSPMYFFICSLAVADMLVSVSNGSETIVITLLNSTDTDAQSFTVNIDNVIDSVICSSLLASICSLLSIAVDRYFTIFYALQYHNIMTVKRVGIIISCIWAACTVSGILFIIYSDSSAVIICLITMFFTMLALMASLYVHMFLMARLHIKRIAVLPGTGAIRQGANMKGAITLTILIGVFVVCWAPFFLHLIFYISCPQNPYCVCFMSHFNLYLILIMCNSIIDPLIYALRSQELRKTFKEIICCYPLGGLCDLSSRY
T4 sequence (P33032 whole entry): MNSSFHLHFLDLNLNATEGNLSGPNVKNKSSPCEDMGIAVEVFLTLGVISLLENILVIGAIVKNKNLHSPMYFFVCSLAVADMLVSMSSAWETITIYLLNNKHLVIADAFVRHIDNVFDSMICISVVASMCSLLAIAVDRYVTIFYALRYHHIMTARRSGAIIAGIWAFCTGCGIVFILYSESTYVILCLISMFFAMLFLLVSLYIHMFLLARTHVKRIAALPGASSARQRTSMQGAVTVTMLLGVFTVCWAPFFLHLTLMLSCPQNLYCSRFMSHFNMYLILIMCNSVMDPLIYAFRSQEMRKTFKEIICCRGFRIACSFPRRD
T2 sequence (Q01727 whole entry): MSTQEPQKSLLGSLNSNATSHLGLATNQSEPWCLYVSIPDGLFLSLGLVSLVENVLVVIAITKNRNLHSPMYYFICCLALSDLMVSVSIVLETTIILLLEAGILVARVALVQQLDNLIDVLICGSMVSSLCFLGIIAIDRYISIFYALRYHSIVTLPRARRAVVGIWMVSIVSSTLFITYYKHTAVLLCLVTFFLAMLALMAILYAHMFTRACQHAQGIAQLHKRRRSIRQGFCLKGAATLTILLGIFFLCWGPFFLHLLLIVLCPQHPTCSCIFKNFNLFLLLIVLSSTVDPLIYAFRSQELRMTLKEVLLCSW
T3 sequence (P41968 whole entry): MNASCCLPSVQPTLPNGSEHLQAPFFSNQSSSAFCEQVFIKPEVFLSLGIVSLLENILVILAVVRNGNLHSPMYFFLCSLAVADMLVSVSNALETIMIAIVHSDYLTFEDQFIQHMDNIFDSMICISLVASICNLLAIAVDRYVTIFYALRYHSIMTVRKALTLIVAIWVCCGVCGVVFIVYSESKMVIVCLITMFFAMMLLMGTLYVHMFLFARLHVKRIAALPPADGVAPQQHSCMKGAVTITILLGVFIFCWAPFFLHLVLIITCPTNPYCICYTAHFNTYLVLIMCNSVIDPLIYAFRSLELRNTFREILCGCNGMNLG

receptor selectivity in binding (hMC4-R [1]; MC1-R, MC3-R, MC4-R and MC5-R binding compared) | functional status at MC4-R (hMC4-R [2]; functional studies) | Ki (hMC4-R [1]) [nM] | Ki [4] [nM] | Ki (hMC3-R) [nM] | Ki (hMC5-R) [nM] | Emax (hMC4-R [2]; HEK293, NDP-α-MSH is 100%, read-out: intrinsic activity at MC4-R) [%] | EC50 (hMC4-R [2]; functional studies, cAMP, average of studies, read-out: EC50 at MC4-R) [nM] | SMILES | penile erections per rat per hour compared to bremelanotide (companion studies) ([3]; 3.0 μmol/kg subcutaneous vs bremelanotide 1 μmol/kg IV) | observed spontaneous erections compared to vehicle controls ([3]; subcutaneous) | spontaneous erections per rat in one hour ([3]; subcutaneous, 0.3 mg/kg, n=7) | spontaneous erections per rat in one hour ([3]; subcutaneous, 1.0 mg/kg, n=7) | increase of systolic blood pressure compared to a dose of bremelanotide producing comparable penile erection results (systolic blood pressure) | penile erections per rat per hour compared to bremelanotide (companion studies) ([3]; 1 mg/kg subcutaneous vs bremelanotide 1 mg/kg IV) | spontaneous erections per rat in one hour ([3]; IV, 1 mg/kg, n=7, positive control)
selective for MC4-R | agonist |  |  |  |  |  |  | CC(=O)N[C@@H](CCCNC(=N)N)C(=O)N[C@H]1CC(=O)NCCCC[C@@H](C(N)=O)NC(=O)[C@H](Cc2c[nH]c3ccccc23)NC(=O)[C@H](CCCNC(=N)N)NC(=O)[C@@H](Cc2ccccc2)NC(=O)[C@H](CCN)NC1=O [Example 8.1, Ac-Arg-cyclo(Asp-Dab-D-Phe-Arg-Trp-Lys)-NH2] | same or higher penile erection results | statistically significant increase | 2.286±0.286 | 4.571±1.088 | less increase of systolic blood pressure |  | 
 | agonist | 0.65 | 1 | 74 | 300 |  |  | CC(=O)N[C@@H](CCCNC(=N)N)C(=O)N[C@H]1CCC(=O)NCCC[C@@H](C(N)=O)NC(=O)[C@H](Cc2c[nH]c3ccccc23)NC(=O)[C@H](CCCNC(=N)N)NC(=O)[C@@H](Cc2ccccc2)NC(=O)[C@H](CCN)NC1=O [Example 8.3, Ac-Arg-cyclo(Glu-Dab-D-Phe-Arg-Trp-Orn)-NH2] |  |  |  |  |  |  | 
 | agonist | 8 | 4 | 410 | 2370 | 91 | 3 | CC(=O)N[C@@H](CCCNC(=N)N)C(=O)N[C@H]1CCC(=O)NCCC[C@@H](C(=O)O)NC(=O)[C@H](Cc2c[nH]c3ccccc23)NC(=O)[C@H](CCCNC(=N)N)NC(=O)[C@@H](Cc2ccccc2)NC(=O)[C@H](CCN)NC1=O [Example 8.4, Ac-Arg-cyclo(Glu-Dab-D-Phe-Arg-Trp-Orn)-OH] |  | statistically significant increase | 2.571±0.685 | 5.286±0.918 | less increase of systolic blood pressure | same or higher penile erection results | 
 |  |  |  |  |  |  |  | CCCC[C@H](NC(C)=O)C(=O)N[C@H]1CC(=O)NCCCC[C@@H](C(=O)O)NC(=O)[C@H](Cc2c[nH]c3ccccc23)NC(=O)[C@H](CCCN=C(N)N)NC(=O)[C@@H](Cc2ccccc2)NC(=O)[C@H](Cc2cnc[nH]2)NC1=O [bremelanotide, Ac-Nle-cyclo(Asp-His-D-Phe-Arg-Trp-Lys)-OH, reference compound] |  |  |  |  |  |  | 4±0.535
